Test results from patent EP3033337B1, “SUBSTITUTED IMIDAZOLES AS N-TYPE CALCIUM CHANNEL BLOCKERS” (Janssen Pharmaceutica NV, priority 2013, dated 2015).
Read-outs that look alike come from different tables or passages of the source.

Columns and labels:
[1] = target: T1, human N-type Ca channel (Homo sapiens, UniProt Q00975); experiment: Calcium influx assay (FDSS), KCl depolarization, Fluo8 dye; type: cell-based; set-up: host or cells: HEK 293
In short: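 HEK293 cells stably expressing the human N-type Ca channel were loaded with Fluo8 and washed in choline-based buffer (pH 7.2, 2 mM CaCl2, 2 mM KCl). Cells were preincubated with serially diluted compound for 15 min in the dark. Ca influx was then recorded by fluorescence after depolarization with 100 mM KCl.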

[2] = system: CFA-induced mechanical allodynia; experiment: Complete Freund's Adjuvant (CFA) induced mechanical allodynia, Von Frey test; type: in vivo
Method: Animals arrived and were acclimatized for 1-2 weeks in a temperature-controlled room with a 12 h light/dark cycle and allowed free access to standard laboratory chow and water.
CFA (Sigma) was injected intra-plantar (75 µg/150 µL) from a concentration of 1:1 (diluted 1 mg/ mL of CFA in 1 mL ofPBS). CFA-induced mechanical allodynia was quantified by a Von frey test on day 2 (48 h post injection of CFA) and animals were randomized based on iPWT response (Dixon 1980). […] Animals were administered a compound of Formula (I) through appropriate route based on their pharmacokinetic properties. Responses were measured with a Von-Frey filament. The maximum possible effect (% MPE) was determined as 100% if sensitivity in ipsilateral paw neared that of the contralateral paw. Values from the vehicle-treated animals were considered 0%. The compound effect was determined based on these values.

[3] = target: T1, human N-type Ca channel; experiment: Electrophysiological response, QPatch (depolarization -80 mV to +20 mV)
Method: The recombinant cell line described above was used in the measurement of electrophysiological properties with QPatch (Sophion). Cells were maintained in culture as mentioned above. Prior to the experiment, the flasks were moved to 30 °C and incubated for 48-72 hrs. On the day of assaying, cells were detached and harvested. The cell pellet was re-suspended in SMF4HEK (HyClone)/25mM HEPS at 2-5 million/ mL and placed on the QStirrer of the QPatch for 30-60 min prior to the start of the assay. […] Microtiter-Plate/Reference Buffer contained 140 mM TEA-Cl, 10mM BaCl2, 0.8 mM MgCl2, 10 mM HEPES pH ∼7.4 adjusted with TEA-OH/HCl, and ∼300mOsm. Cells were transferred to a QPatch 48 plate and gigaseal was formed. The plate was perfused with intracellular and extracellular buffer. […] In brief, cells were depolarized from resting potential of -80 mV to +20 mV and current was recorded. Data was plotted as percent inhibition vs concentration of the compound and IC50 values were generated using Graphpad Prism non-linear regression analysis.

[4] = system: Rats; experiment: Sciatic nerve ligation (SNL) model of neuropathic pain, L5/L6 spinal nerve ligation, von Frey filaments; type: in vivo; conditions: response at Tmax
Description: Left L5 and L6 spinal nerves are isolated adjacent to the vertebral column and were ligated with 5-0 silk suture distal to the dorsal root ganglion, as described by Kim and Chung (1992). The incision was closed with the help of GLUture topical tissue adhesive. At 14 days post-surgery (one day prior to test compound administration), mechanical allodynia was quantified using eight von Frey filaments, calibrated in the range 0.4-15.1 g (Nielsen et al 2005). Rats were placed into individual plastic containers on top of a suspended wire mesh grid and acclimated to the test chambers for at least 15 min. Filaments were applied perpendicular to the mid-plantar paw surface, with enough force to cause slight buckling, and held in place for 6-8 sec until a response was noted as a sharp paw withdrawal, flinching, licking and/or biting immediately upon removal of the filament (Nielsen et al 2005). […] Test compounds of Formula (I) were administered and a response was measured at Tmax. The maximum possible effect (% MPE) was determined to be 100% if the sensitivity in the ipsilateral paw neared that of the contralateral paw. Values from vehicle-treated animals were considered 0 %. The compound effect was determined based on these values.

[5] = HEK 293 cells expressing human N-type Ca channel, 100 mM KCl, read-out: N Type IC50 Data FDSS
[6] = N Type IC50 Data Qpatch Pulse=1, Pulse=1, concentration range 0.01-1 µM
[7] = N Type IC50 Data Qpatch Pulse=15, Pulse=15, concentration range 0.01-1 µM
[8] = N Type IC50 Data Qpatch Pulse=1, Pulse=1, concentration range 0.3-10 µM
[9] = N Type IC50 Data Qpatch Pulse=15, Pulse=15, concentration range 0.3-10 µM
[10] = read-out: Qpatch Pulse=1 (percent inhibition)

T1 sequence (Q00975 whole entry): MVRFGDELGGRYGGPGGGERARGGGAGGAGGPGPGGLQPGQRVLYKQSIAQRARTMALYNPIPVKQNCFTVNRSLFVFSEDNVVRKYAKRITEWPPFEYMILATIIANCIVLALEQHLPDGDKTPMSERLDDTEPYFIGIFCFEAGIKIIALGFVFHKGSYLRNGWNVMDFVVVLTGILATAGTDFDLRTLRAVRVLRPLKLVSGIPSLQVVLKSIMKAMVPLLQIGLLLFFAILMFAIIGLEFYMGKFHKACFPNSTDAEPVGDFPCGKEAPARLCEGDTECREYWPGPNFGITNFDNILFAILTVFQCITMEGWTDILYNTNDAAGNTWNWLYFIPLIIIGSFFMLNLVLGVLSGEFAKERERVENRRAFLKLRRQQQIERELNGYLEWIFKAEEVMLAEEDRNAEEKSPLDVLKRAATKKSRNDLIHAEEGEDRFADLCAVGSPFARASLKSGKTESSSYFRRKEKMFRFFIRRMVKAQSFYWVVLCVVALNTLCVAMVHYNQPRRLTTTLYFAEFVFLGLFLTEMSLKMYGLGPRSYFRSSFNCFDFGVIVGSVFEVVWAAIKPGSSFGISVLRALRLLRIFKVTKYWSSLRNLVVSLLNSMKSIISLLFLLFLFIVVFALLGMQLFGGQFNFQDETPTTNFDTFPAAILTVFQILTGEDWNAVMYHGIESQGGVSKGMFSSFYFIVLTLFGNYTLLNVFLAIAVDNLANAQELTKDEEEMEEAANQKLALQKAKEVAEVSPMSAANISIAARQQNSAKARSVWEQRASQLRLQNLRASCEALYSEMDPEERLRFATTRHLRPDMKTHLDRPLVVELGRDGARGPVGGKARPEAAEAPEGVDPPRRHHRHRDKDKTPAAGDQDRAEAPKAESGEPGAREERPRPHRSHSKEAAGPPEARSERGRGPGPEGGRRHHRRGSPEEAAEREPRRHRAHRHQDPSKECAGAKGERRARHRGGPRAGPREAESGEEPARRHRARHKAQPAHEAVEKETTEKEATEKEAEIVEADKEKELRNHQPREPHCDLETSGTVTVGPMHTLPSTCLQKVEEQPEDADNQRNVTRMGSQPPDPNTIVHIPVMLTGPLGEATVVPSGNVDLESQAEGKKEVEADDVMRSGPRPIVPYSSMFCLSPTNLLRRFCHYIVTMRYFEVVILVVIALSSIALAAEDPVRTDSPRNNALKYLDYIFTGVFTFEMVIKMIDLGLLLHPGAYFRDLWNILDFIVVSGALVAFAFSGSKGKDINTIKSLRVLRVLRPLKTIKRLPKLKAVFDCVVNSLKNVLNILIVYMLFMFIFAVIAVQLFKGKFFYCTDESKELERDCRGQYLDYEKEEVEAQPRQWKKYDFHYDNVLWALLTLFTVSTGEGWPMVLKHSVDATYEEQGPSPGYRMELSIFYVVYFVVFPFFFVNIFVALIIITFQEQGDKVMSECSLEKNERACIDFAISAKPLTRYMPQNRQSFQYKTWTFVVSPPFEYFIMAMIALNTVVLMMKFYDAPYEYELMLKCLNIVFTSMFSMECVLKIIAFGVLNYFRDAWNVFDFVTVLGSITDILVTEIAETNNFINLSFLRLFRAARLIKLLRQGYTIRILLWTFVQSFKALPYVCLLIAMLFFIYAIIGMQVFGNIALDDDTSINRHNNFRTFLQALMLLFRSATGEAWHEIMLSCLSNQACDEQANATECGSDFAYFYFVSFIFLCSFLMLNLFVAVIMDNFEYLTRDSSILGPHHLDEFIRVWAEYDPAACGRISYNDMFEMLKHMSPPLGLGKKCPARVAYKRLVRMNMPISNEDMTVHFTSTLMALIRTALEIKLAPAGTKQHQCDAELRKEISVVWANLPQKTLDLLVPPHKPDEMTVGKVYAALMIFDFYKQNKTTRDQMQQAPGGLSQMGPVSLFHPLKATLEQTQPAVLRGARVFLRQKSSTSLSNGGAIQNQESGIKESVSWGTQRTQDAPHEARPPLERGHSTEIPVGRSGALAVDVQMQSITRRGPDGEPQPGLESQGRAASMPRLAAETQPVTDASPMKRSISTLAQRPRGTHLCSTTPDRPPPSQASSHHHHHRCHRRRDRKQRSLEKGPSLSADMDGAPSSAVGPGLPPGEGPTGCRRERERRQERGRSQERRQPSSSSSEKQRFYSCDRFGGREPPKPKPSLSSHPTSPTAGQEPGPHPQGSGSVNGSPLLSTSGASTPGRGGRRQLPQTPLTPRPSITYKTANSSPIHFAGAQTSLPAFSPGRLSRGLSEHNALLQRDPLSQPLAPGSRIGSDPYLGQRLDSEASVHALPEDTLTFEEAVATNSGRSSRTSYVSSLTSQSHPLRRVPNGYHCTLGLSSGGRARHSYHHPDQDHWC
T1 sequence (P54284 whole entry partner): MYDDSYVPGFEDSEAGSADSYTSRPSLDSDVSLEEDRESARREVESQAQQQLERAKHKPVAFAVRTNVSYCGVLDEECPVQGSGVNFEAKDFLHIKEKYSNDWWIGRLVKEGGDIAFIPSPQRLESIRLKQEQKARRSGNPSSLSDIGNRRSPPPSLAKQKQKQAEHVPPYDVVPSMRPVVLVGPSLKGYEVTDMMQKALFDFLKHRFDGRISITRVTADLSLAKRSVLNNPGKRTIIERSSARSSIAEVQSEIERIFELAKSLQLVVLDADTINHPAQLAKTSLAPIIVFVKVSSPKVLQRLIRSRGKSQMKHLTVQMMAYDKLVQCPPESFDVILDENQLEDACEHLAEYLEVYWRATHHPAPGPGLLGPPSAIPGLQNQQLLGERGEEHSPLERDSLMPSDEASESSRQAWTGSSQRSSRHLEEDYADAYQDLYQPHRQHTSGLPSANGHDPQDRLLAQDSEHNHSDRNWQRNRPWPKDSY
T1 sequence (P54289 25-956 partner limits assumed): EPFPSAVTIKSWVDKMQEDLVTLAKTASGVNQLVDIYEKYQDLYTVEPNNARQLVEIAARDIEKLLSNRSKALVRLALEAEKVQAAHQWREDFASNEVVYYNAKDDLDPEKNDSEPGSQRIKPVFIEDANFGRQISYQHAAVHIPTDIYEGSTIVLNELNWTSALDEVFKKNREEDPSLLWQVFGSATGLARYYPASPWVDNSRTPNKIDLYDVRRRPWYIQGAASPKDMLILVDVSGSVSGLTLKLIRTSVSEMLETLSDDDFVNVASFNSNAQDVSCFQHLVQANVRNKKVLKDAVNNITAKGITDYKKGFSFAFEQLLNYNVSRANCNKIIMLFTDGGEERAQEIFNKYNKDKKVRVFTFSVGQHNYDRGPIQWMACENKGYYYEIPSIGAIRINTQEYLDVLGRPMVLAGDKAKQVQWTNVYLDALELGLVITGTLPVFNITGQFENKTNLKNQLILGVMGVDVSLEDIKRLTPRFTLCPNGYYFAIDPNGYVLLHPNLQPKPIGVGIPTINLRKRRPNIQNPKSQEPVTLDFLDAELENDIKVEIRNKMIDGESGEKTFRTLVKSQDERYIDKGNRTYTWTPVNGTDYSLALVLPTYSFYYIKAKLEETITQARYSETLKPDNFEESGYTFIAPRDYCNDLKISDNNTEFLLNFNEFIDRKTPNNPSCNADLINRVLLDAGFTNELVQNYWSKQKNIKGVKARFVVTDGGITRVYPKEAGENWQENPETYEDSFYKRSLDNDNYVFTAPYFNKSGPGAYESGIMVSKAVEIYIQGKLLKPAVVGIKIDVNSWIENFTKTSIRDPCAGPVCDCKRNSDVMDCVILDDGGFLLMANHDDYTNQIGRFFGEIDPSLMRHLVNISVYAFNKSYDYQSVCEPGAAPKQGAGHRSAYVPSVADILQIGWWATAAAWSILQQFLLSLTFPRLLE
T1 sequence (P54289 957-1103 partner limits assumed): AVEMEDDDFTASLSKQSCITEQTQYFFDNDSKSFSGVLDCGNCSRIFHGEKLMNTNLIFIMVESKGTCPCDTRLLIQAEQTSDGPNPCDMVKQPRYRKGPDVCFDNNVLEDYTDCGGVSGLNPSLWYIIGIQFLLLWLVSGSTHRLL

COc1ccccc1-c1nc(C2CC(C)(C)OC(C)(C)C2)cn1-c1ccc(C#N)cc1 [Compound 1, 4-[2-(2-Methoxyphenyl)-4-(2,2,6,6-tetramethyltetrahydro-2H-pyran-4-yl)-1H-imidazol-1-yl]benzonitrile]
IC50 [1, 5]: 41 nM | CFA (% Reversal) ([2]; Dose 12.5 mg/kg): 19.73±8.25% | CFA (% Reversal) ([2]; Dose 25 mg/kg): 37.62±7.17% | CFA (% Reversal) ([2]; Dose 50 mg/kg): 58.8±10.22% | CFA (% Reversal) ([2]; Dose 100 mg/kg): 75.26±8.96% | IC50 [3, 6]: 365 nM | IC50 [3, 7]: > 1000 nM | SNL(%MPE) ([4]; Dose 12.5 mg/kg): 22.21±7.61% | SNL(%MPE) ([4]; Dose 25 mg/kg): 40.9±20.29% | SNL(%MPE) ([4]; Dose 100 mg/kg): 75±13.01%

COc1ncccc1-c1nc(C2CC(C)(C)OC(C)(C)C2)cn1-c1ccc(F)cc1 [Compound 10, 3-(1-(4-fluorophenyl)-4-(2,2,6,6-tetramethyltetrahydro-2H-pyran-4-yl)-1H-imidazol-2-yl)-2-methoxypyridine]
IC50 [1, 5]: 401 nM | IC50 [3, 8]: 5920 nM | IC50 [3, 9]: 1470 nM | SNL(%MPE) ([4]; Dose 3 mg/kg): 12.17±11.24% | SNL(%MPE) ([4]; Dose 10 mg/kg): 40.53±13.64% | SNL(%MPE) ([4]; Dose 30 mg/kg): 54.59±13.37% | SNL(%MPE) ([4]; Dose 100 mg/kg): 85.45±8.44%

COc1ncccc1-c1nc(C2CC(C)(C)OC(C)(C)C2)cn1-c1ccc(Cl)cc1 [Compound 11, 3-(1-(4-chlorophenyl)-4-(2,2,6,6-tetramethyltetrahydro-2H-pyran-4-yl)-1H-imidazol-2-yl)-2-methoxypyridine]
IC50 [1]: 82 nM | CFA (% Reversal) ([2]; Dose 3 mg/kg): 20.97±7.88% | CFA (% Reversal) ([2]; Dose 10 mg/kg): 41.12±5.14% | CFA (% Reversal) ([2]; Dose 30 mg/kg): 55.8±11.32% | CFA (% Reversal) ([2]; Dose 60 mg/kg): 76.4±3.78% | inhibition at 10 µM [3, 10]: 63% | inhibition at 10 µM ([3]; read-out: Qpatch Pulse=15 (percent inhibition)): 21% | SNL(%MPE) ([4]; Dose 3 mg/kg): 28.29± 10.84% | SNL(%MPE) ([4]; Dose 10 mg/kg): 49.01±9.93% | SNL(%MPE) ([4]; Dose 30 mg/kg): 70.69±10.3% | SNL(%MPE) ([4]; Dose 60 mg/kg): 96.18±3.22%

COc1ccccc1-c1nc(C2CC(C)(C)OC(C)(C)C2)cn1-c1ccc(Cl)cc1 [Compound 38, 1-(4-chlorophenyl)-2-(2-methoxyphenyl)-4-(2,2,6,6-tetramethyltetrahydro-2H-pyran-4-yl)-1H-imidazole]
IC50 [1, 5]: 372 nM | IC50 [3, 8]: 2400 nM | IC50 [3, 9]: 769 nM | SNL(%MPE) ([4]; Dose 50 mg/kg): 87.01± 9.25%

COc1ccccc1-c1nc(C2(O)CC(C)(C)OC(C)(C)C2)cn1-c1ccc(C#N)c(F)c1 [Compound 118, 2-fluoro-4-(4-(4-hydroxy-2,2,6,6-tetramethyltetrahydro-2H-pyran-4-yl)-2-(2-methoxyphenyl)-1H-imidazol-1-yl)benzonitrile]
IC50 [1, 5]: 150 nM | IC50 [3, 8]: 8100 nM

COc1ncccc1-c1nc(C2(O)CC(C)(C)OC(C)(C)C2)cn1-c1ccc(C#N)c(F)c1 [Compound 119, 2-fluoro-4-(4-(4-hydroxy-2,2,6,6-tetramethyltetrahydro-2H-pyran-4-yl)-2-(2-methoxypyridin-3-yl)-1H-imidazol-1-yl)benzonitrile]
IC50 [1, 5]: 1290 nM | inhibition at 10 µM [3, 10]: 28%

COc1cnccc1-c1nc(C2(O)CC(C)(C)OC(C)(C)C2)cn1-c1ccc(Cl)cc1 [Compound 120, 4-(1-(4-chlorophenyl)-2-(3-methoxypyridin-4-yl)-1H-imidazol-4-yl)-2,2,6,6-tetramethyltetrahydro-2H-pyran-4-ol]
IC50 [1, 5]: 108 nM | IC50 [3, 8]: 1600 nM | IC50 [3, 9]: 9100 nM

CC1(C)CC(c2cn(-c3ccc(Cl)cc3)c(-c3ccc[nH]c3=O)n2)CC(C)(C)O1 [Compound 122, 3-(1-(4-chlorophenyl)-4-(2,2,6,6-tetramethyltetrahydro-2H-pyran-4-yl)-1H-imidazol-2-yl)pyridin-2(1H)-one]
IC50 [1, 5]: 3010 nM | IC50 ([3]; read-out: N Type IC50 Data Qpatch Pulse=1, Pulse=1, concentration range 0.01-1 µM): > 1000 nM | IC50 ([3]; read-out: N Type IC50 Data Qpatch Pulse=15, Pulse=15, concentration range 0.01-1 µM): > 1000 nM

COc1ccccc1-c1nc(C2CC(C)(C)OC(C)(C)C2)cn1-c1ccc(C#N)c(Cl)c1 [Compound 123, 2-chloro-4-(2-(2-methoxyphenyl)-4-(2,2,6,6-tetramethyltetrahydro-2H-pyran-4-yl)-1H-imidazol-1-yl)benzonitrile]
IC50 [1, 5]: 129 nM | IC50 [3, 6]: 468 nM | IC50 [3, 7]: > 1000 nM

COc1ccccc1-c1nc(C2=CC(C)(C)OC(C)(C)C2)cn1-c1ccc(Cl)cc1 [Compound 124, 1-(4-chlorophenyl)-2-(2-methoxyphenyl)-4-(2,2,6,6-tetramethyl-3,6-dihydro-2H-pyran-4-yl)-1H-imidazole]
IC50 [1, 5]: 103 nM | IC50 [3, 8]: 2500 nM | IC50 [3, 9]: 1600 nM

COc1ccccc1-c1nc(C2=CC(C)(C)OC(C)(C)C2)cn1-c1ccc(Br)c(F)c1 [Compound 125, 1-(4-bromo-3-fluorophenyl)-2-(2-methoxyphenyl)-4-(2,2,6,6-tetramethyl-3,6-dihydro-2H-pyran-4-yl)-1H-imidazole]
IC50 [1, 5]: 313 nM | IC50 [3, 8]: 2100 nM | IC50 [3, 9]: 2300 nM
